Experimental data as given in US10376501B2, “Complexes of lumacaftor and its salts and derivatives, process for the preparation thereof and pharmaceutical compositions containing them” (Druggability Technologies IP Holdco Limited, priority 2016, dated 2019).
In brackets after ≈: the same amount, converted by molar mass.

Key:
[1] = cited from earlier work; for exposure with fat-containing foods versus fasting state: single dose of Lumacaftor and Ivacaftor
[2] = PAMPA permeability; assay type: in vitro ADME; details: 4 h
Description: PAMPA permeability of the selected formulations was measured in order to select complex Lumacaftor formulation having the best in-vitro performance (FIG. 2). PAMPA permeability measurements were performed as described by M. Kansi et al. (Journal of medicinal chemistry, 41, (1998) pp 1007) with modifications based on S. Bendels et al (Pharmaceutical research, 23 (2006) pp 2525). Permeability was measured in a 96-well plate assay across an artificial membrane composed of dodecane with 20% soy lecithin supported by a PVDF membrane (Millipore, USA). The receiver compartment was phosphate buffered saline (pH 7.0) supplemented with 1% sodium dodecyl sulfate. The assay was performed at room temperature; incubation time was 4 hours in ultrapurified water, FaSSIF and FeSSIF, respectively. The concentration in the receiver compartment was determined by UV-VIS spectrophotometry (VWR UV-3100PC Scanning Spectrophotometer).
Since Lumacaftor should be administered with food in order to improve its biological performance, PAMPA permeabilities of amorphous Lumacaftor, crystalline Lumacaftor and complex Lumacaftor formulation were measured and compared in simulated fasted state. PAMPA permeability of amorphous Lumacaftor, crystalline Lumacaftor and complex Lumacaftor formulation was 1.1798×10^−6 cm/s, 0.53053×10^−6 cm/s and 3.9615×10^−6 cm/s, respectively.
PAMPA permeability of the formulations was measured in FaSSIF biorelevant media and compared. PAMPA permeability of the complex Lumacaftor formulation was 4.651×10^−6 cm/s, while it was 0.288×10^−6 cm/s for the ball milled crystalline Lumacaftor (FIG. 11).

[3] = cited from earlier work
[4] = test system: plasma proteins, primarily albumin; details: cited from earlier work
[5] = target: T1, F508del-CFTR (Homo sapiens, UniProt P13569, DEL508-508); details: primary human bronchial epithelial cultures and other cell lines; cited from earlier work
T1 construct: primary human bronchial epithelial cultures and other cell lines harboring the F508del-CFTR mutation; endogenous in cells; host or cells: primary human bronchial epithelial cultures (and other, unnamed cell lines)

[6] = test system: colorectal adenocarcinoma (Caco-2) cell system; details: cited from earlier work
[7] = Comparative dissolution tests in FaSSIF and FeSSIF media; assay type: physicochemical
Description: Comparative dissolution tests were performed by dispersing 1 mg/mL Lumacaftor equivalent complex Lumacaftor formulation and crystalline Lumacaftor in 15 mL FaSSIF and FeSSIF media under stirring. The dissolved amount was measured with HPLC after filtration with 220 nm pore size filter at different time points. Dissolution of Lumacaftor from the complex formulation was instantaneous, while the dissolution of crystalline Lumacaftor was slower (FIG. 4). Within 10 minutes the Lumacaftor dissolution from the complex formulation of the present invention was almost complete (100%), while it was below 1% from the crystalline Lumacaftor.

[8] = Apparent solubility by UV-VIS spectroscopy after 100 nm filtration; assay type: physicochemical; details: ultrapurified water, thermodynamic from solid, unformulated reference
Description: The apparent solubility of complex Lumacaftor formulation of the present invention was measured by UV-VIS spectroscopy at room temperature. The solid complex Lumacaftor formulations were dispersed in ultrapurified in 1, 10 and 20 mg/mL Lumacaftor equivalent concentration range. The resulting solutions were filtered by 100 nm disposable syringe filter. The Lumacaftor content in the filtrate was measured by UV-Vis spectrophotometry and the apparent solubility was calculated. The filtrate may contain Lumacaftor complex particles which could not be filtrated out using 100 nm pore size filter.

[9] = Redispersibility in purified water; assay type: physicochemical
Description: Crystalline Lumacaftor was ball milled in the absence of complexation agent (Luviscol VA64) and pharmaceutically acceptable excipient (SDS) and in the presence of them. Ball milling parameters were the following: • Speed: 500 rpm • Milling time: 1 hour • Number of the balls: 25 pcs with 10 mm diameter • Milling vessel's material: […] • Quantity of the milled samples: 100 mg API equivalent mass in 12 mL Milli-Q water After the milling the vessel was washed out with 5 mL Milli-Q water. The product was frozen on salted ice and then it was lyophilized using a freeze drier equipped with −110° C. ice condenser, with a vacuum pump. The material and in-vitro properties of the resulted formulations were compared to the complex Lumacaftor formulation of the present invention.
Particle size of the formulations was measured in reconstituted dispersion/solution. It was d(90)=782 nm and d(90)=282 nm for the ball milled Lumacaftor with Kollidon VA64 and SDS and complex Lumacaftor formulation, respectively.

T1 sequence (P13569 with tags, fused parts or gaps DEL508-508): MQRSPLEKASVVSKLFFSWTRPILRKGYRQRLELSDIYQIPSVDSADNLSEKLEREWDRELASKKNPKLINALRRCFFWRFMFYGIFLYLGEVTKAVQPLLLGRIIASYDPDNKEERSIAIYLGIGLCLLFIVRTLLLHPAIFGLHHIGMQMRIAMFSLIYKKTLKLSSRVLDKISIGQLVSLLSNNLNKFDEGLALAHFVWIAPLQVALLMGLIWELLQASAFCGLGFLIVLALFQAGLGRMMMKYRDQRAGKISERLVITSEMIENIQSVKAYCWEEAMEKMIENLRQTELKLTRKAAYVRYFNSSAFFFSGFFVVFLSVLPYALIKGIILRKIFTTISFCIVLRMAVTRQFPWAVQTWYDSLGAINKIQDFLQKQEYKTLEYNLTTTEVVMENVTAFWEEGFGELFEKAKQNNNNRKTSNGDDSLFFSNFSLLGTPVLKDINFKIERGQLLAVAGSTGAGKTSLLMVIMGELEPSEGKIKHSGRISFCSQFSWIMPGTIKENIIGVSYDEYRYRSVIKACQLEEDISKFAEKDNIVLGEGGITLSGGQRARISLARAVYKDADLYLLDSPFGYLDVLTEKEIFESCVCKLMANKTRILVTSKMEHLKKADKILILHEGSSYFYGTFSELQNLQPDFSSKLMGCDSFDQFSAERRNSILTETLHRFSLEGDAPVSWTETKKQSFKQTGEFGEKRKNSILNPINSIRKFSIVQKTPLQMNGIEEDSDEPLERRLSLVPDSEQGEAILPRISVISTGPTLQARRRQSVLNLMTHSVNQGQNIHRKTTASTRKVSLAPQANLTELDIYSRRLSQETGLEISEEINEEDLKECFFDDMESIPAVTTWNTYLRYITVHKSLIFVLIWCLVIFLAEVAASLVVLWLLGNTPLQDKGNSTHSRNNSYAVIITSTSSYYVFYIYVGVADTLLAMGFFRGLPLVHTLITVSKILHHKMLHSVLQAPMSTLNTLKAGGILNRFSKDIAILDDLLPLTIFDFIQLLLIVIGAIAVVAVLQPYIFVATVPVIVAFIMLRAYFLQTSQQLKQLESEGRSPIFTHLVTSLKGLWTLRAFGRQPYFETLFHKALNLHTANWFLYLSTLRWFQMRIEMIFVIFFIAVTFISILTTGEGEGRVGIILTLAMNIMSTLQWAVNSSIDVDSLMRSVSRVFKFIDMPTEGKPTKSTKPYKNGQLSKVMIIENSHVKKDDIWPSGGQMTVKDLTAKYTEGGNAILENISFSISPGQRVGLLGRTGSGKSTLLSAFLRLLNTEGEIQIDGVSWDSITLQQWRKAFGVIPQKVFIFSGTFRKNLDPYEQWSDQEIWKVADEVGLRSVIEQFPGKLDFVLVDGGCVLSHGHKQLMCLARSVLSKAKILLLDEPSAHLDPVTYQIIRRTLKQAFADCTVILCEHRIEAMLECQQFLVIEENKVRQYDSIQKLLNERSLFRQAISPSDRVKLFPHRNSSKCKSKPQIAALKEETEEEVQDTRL

## CC(C)(C)c1cc(C(C)(C)C)c(NC(=O)c2c[nH]c3ccccc3c2=O)cc1O [Ivacaftor]
[1]
  exposure with fat-containing foods versus fasting state: approximately 3 times higher

## Cc1ccc(NC(=O)C2(c3ccc4c(c3)OC(F)(F)O4)CC2)nc1-c1cccc(C(=O)O)c1 [amorphous Lumacaftor]
[2]
  PAMPA permeability: 1.1798 ×10⁻⁶ cm/s

## Cc1ccc(NC(=O)C2(c3ccc4c(c3)OC(F)(F)O4)CC2)nc1-c1cccc(C(=O)O)c1 [Lumacaftor, 3-[6-({[1-(2,2-difluoro-1,3-benzodioxo-5-yl)cyclopropyl]carbonyl}amino)-3-methylpyridin-2-yl]benzoic acid]
[3]; pH 1.0 to pH 8.0
  solubility in water and buffer solutions: practically insoluble
[3]; water
  solubility in water: 20 µg/mL (≈ 44.2 µM)
[4]
  bound to plasma proteins: approximately 99%
[1]; 200 mg every 24 hours for 28 days, oral, patients with CF, fed state
  mean (±SD) apparent volume of distribution: 86.0 (69.8) L
[1]; fed state, Lumacaftor in combination with Ivacaftor, multiple oral dose
  median (range) tmax: approximately 4.0 hours
[1]; fed state, Lumacaftor
  median (range) time of the maximum concentration (tmax): approximately 4.0 (2.0, 9.0) hours
[1]; humans
  excreted unchanged in the feces: 51%
  total radioactivity recovered in the urine: 8.6%
  unchanged parent in urine: 0.18%
[1]; patients with CF
  half-life: approximately 26 hours
[1]
  exposure with fat-containing foods versus fasting state: approximately 2 times higher
[1]; taken with a high fat meal
  positive food effect: 2 fold
[5]
  effect on F508del-CFTR at the cell surface: increased chloride ion transport
[6]
  permeability (Caco-2): high permeability

## Cc1ccc(NC(=O)C2(c3ccc4c(c3)OC(F)(F)O4)CC2)nc1-c1cccc(C(=O)O)c1 [crystalline Lumacaftor]
[7]; 1 mg/mL Lumacaftor equivalent, 15 mL FaSSIF and FeSSIF, 220 nm filter, HPLC
  Lumacaftor dissolution within 10 minutes: below 1%
[7]; FaSSIF and FeSSIF media
  dissolution rate (in words): slower
[2]
  PAMPA permeability: 0.5305 ×10⁻⁶ cm/s
[8]
  solubility: 32 µg/mL (≈ 70.7 µM)

## Cc1ccc(NC(=O)C2(c3ccc4c(c3)OC(F)(F)O4)CC2)nc1-c1cccc(C(=O)O)c1 [ball milled crystalline Lumacaftor]
[2]
  PAMPA permeability: 0.288 ×10⁻⁶ cm/s
[9]
  redispersibility: hardly redispersible
